Entries after “also recorded” stand apart in the source; their conditions may differ.
What was measured:
chronic mild stress rats = test: Chronic mild stress model in rats, serum marker analysis; conditions: CMS rats; for reversal of stress-induced alterations in serum markers: versus non-stressed controls;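 on all read-outs here: terminal serum drawn from the tail of rats 24 h after the final drug dose, profiled within a panel of roughly 60 blood markers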
Procedure: At the end of the present study, terminal serum samples were collected for marker analysis to evaluate the effects of stress with and without drug on the levels of about 60 blood markers.
Serum samples were withdrawn from the tail, without stunning, during the daytime (09:00-17:00) 24 hrs after the last drug injection. Blood was collected into BD vacutainers containing clot activator and gel for serum preparation, inverted 5 times and maintained on ice until centrifugation at 3000 rpm for 10 min at 4° C. Serum was decanted, placed on ice, and at the end of the day stored at −80° C.

formalin pain model = conditions: U.S. Patent Application Publication No. 2005/0288371; cited from earlier work
[1] = 1st study, 5 mg/kg, serum, median
[2] = 2nd study, 10 mg/kg, serum, median

For `CN(C)CCC[C@@]1(c2ccc(F)cc2)OCc2cc(C#N)ccc21` [ESC, Escitalopram, reference compound], the “Apo A1 (Apolipoprotein A1)” value (chronic mild stress rats; [1]) was 8.40 µg/mL, the “CRP (C Reactive Protein)” value (chronic mild stress rats; [1]) was 1060.00 µg/mL and the Eotaxin (chronic mild stress rats; [1]) was 1300.00 pg/mL. For the same compound, the “FGF-9 (Fibroblast Growth Factor-9)” value (chronic mild stress rats; [1]) was 0.90 ng/mL, the “GCP-2 (Granulocyte Chemotactic Protein-2)” value (chronic mild stress rats; [1]) was 0.21 ng/mL and the “Growth Hormone” value (chronic mild stress rats; [1]) was 1.38 ng/mL. For the same compound, the “IL-1alpha (Interleukin-1alpha)” value (chronic mild stress rats; [1]) was 15.40 pg/mL, the “IL-2 (Interleukin-2)” value (chronic mild stress rats; [1]) was 38.80 pg/mL and the “IL-4 (Interleukin-4)” value (chronic mild stress rats; [1]) was 51.70 pg/mL. The “IL-7 (Interleukin-7)” value (chronic mild stress rats; [1]) was 0.22 ng/mL, the “IL-10 (Interleukin-10)” value (chronic mild stress rats; [1]) was 317.00 pg/mL and the “IL-11 (Interleukin-11)” value (chronic mild stress rats; [1]) was 166.00 pg/mL. The “IP-10 (Inducible Protein-10)” value (chronic mild stress rats; [1]) was 194.00 pg/mL, the “IgA (Immunoglobulin A)” value (chronic mild stress rats; [1]) was 6.54 µg/mL and the Insulin (chronic mild stress rats; [1]) was 11.30 ulU/mL. For the same compound, the “LIF (Leukemia Inhibitory Factor)” value (chronic mild stress rats; [1]) was 67.20 pg/mL, the Leptin (chronic mild stress rats; [1]) was 2.62 ng/mL and the Lymphotactin (chronic mild stress rats; [1]) was 68.00 pg/mL. The “M-CSF (Macrophage-Colony Stimulating Factor)” value (“M-CSF” below) (chronic mild stress rats; [1]) was 941.00 ng/mL, the “MCP-1 (Monocyte Chemoattractant Protein-1)” value (chronic mild stress rats; [1]) was 1500.00 pg/mL and the “MCP-3 (Monocyte Chemoattractant Protein-3)” value (chronic mild stress rats; [1]) was 885.00 pg/mL. The “MCP-5 (Monocyte Chemoattractant Protein-5)” value (chronic mild stress rats; [1]) was 0.87 pg/mL, the “MIP-1alpha (Macrophage Inflammatory Protein-1alpha)” value (shortened to “MIP-1alpha”) (chronic mild stress rats; [1]) was 244.00 ng/mL and the “MIP-1gamma (Macrophage Inflammatory Protein-1gamma)” value (from here on “MIP-1gamma”) (chronic mild stress rats; [1]) was 11.50 ng/mL. For the same compound, the “MIP-2 (Macrophage Inflammatory Protein-2)” value (chronic mild stress rats; [1]) was 0.09 pg/mL, the “MPO (Myeloperoxidase)” value (chronic mild stress rats; [1]) was 54.60 ng/mL and the “NGAL (Lipocalin-2)” value (chronic mild stress rats; [1]) was 0.22 ng/mL. The Osteopontin (chronic mild stress rats; [1]) was 310.00 ng/mL, the “SAP (Serum Amyloid P)” value (chronic mild stress rats; [1]) was 178.00 µg/mL and the “SCF (Stem Cell Factor)” value (chronic mild stress rats; [1]) was 16.95 pg/mL. For the same compound, the “SGOT (Serum Glutamic-Oxaloacetic Transaminase)” value (“SGOT” for short) (chronic mild stress rats; [1]) was 0.31 µg/mL, the “TIMP-1 (Tissue Inhibitor of Metalloproteinase Type-1)” value (chronic mild stress rats; [1]) was 0.22 ng/mL and the “TPO (Thrombopoietin)” value (chronic mild stress rats; [1]) was 142.00 ng/mL. The “Tissue Factor” value (chronic mild stress rats; [1]) was 0.15 ng/mL, the “VCAM-1 (Vascular Cell Adhesion Molecule-1)” value (chronic mild stress rats; [1]) was 409.00 ng/mL and the “VEGF (Vascular Endothelial Cell Growth Factor)” value (“VEGF” for short) (chronic mild stress rats; [1]) was 106.00 pg/mL. For the same compound, the “reversal of stress-induced alterations in serum markers” value (chronic mild stress rats) was “inactive at most of these changes”.

In the case of `Oc1noc2c1CCNC2` [GBX, 4,5,6,7-tetrahydroisoxazolo [5,4-c] pyridine-3-ol], the “pain response in phase 2 of the formalin pain model” value (formalin pain model) is listed as “inhibit the pain response in phase 2”, the “Apo A1 (Apolipoprotein A1)” value (chronic mild stress rats; [1]) is listed as 8.20 µg/mL and the “CRP (C Reactive Protein)” value (chronic mild stress rats; [1]) is listed as 1140.00 µg/mL. The Cystatin-C (chronic mild stress rats; [1]) was 1165.00 ng/mL, the “FGF-9 (Fibroblast Growth Factor-9)” value (chronic mild stress rats; [1]) was 0.59 ng/mL and the “GCP-2 (Granulocyte Chemotactic Protein-2)” value (chronic mild stress rats; [1]) was 0.19 ng/mL. For the same compound, the “Growth Hormone” value (chronic mild stress rats; [1]) was 7.67 ng/mL, the “IL-1alpha (Interleukin-1alpha)” value (chronic mild stress rats; [1]) was 11.30 pg/mL and the “IL-2 (Interleukin-2)” value (chronic mild stress rats; [1]) was 31.30 pg/mL. The “IL-4 (Interleukin-4)” value (chronic mild stress rats; [1]) was 29.60 pg/mL, the “IL-7 (Interleukin-7)” value (chronic mild stress rats; [1]) was 0.16 ng/mL and the “IL-10 (Interleukin-10)” value (chronic mild stress rats; [1]) was 249.00 pg/mL. The “IL-11 (Interleukin-11)” value (chronic mild stress rats; [1]) was 128.00 pg/mL, the “IL-18 (Interleukin-18)” value (chronic mild stress rats; [1]) was 0.07 ng/mL and the “IP-10 (Inducible Protein-10)” value (chronic mild stress rats; [1]) was 138.00 pg/mL. The “IgA (Immunoglobulin A)” value (chronic mild stress rats; [1]) was 5.91 µg/mL, the Insulin (chronic mild stress rats; [1]) was 8.88 ulU/mL and the “LIF (Leukemia Inhibitory Factor)” value (chronic mild stress rats; [1]) was 53.90 pg/mL. For the same compound, the Leptin (chronic mild stress rats; [1]) was 2.59 ng/mL, the Lymphotactin (chronic mild stress rats; [1]) was 53.80 pg/mL and the “M-CSF” value (chronic mild stress rats; [1]) was 865.00 ng/mL. The “MCP-1 (Monocyte Chemoattractant Protein-1)” value (chronic mild stress rats; [1]) was 1185.00 pg/mL, the “MCP-3 (Monocyte Chemoattractant Protein-3)” value (chronic mild stress rats; [1]) was 655.00 pg/mL and the “MCP-5 (Monocyte Chemoattractant Protein-5)” value (chronic mild stress rats; [1]) was 0.77 pg/mL. For the same compound, the “MIP-1alpha” value (chronic mild stress rats; [1]) was 173.00 ng/mL, the “MIP-1gamma” value (chronic mild stress rats; [1]) was 7.95 ng/mL and the “MIP-2 (Macrophage Inflammatory Protein-2)” value (chronic mild stress rats; [1]) was 0.08 pg/mL. For the same compound, the “MPO (Myeloperoxidase)” value (chronic mild stress rats; [1]) was 20.80 ng/mL, the “NGAL (Lipocalin-2)” value (chronic mild stress rats; [1]) was 0.17 ng/mL and the Osteopontin (chronic mild stress rats; [1]) was 396.00 ng/mL. For the same compound, the “SAP (Serum Amyloid P)” value (chronic mild stress rats; [1]) was 133.00 µg/mL, the “SCF (Stem Cell Factor)” value (chronic mild stress rats; [1]) was 14.85 pg/mL and the “SGOT” value (chronic mild stress rats; [1]) was 0.21 µg/mL. The “TIMP-1 (Tissue Inhibitor of Metalloproteinase Type-1)” value (chronic mild stress rats; [1]) was 0.16 ng/mL, the “TPO (Thrombopoietin)” value (chronic mild stress rats; [1]) was 147.00 ng/mL and the “Tissue Factor” value (chronic mild stress rats; [1]) was 0.10 ng/mL. The “VCAM-1 (Vascular Cell Adhesion Molecule-1)” value (chronic mild stress rats; [1]) was 361.00 ng/mL, the “VEGF” value (chronic mild stress rats; [1]) was 81.00 pg/mL and the “Apo A1 (Apolipoprotein A1)” value (chronic mild stress rats; [2]) was 6.20 µg/mL. The “Beta-2 Microglobulin” value (chronic mild stress rats; [2]) was 38.00 µg/mL, the “CRP (C Reactive Protein)” value (chronic mild stress rats; [2]) was 1030.00 µg/mL and the Clusterin (chronic mild stress rats; [2]) was 108.00 µg/mL. The Cystatin-C (chronic mild stress rats; [2]) was 696.00 ng/mL, the Eotaxin (chronic mild stress rats; [2]) was 1072.00 pg/mL and the “FGF-9 (Fibroblast Growth Factor-9)” value (chronic mild stress rats; [2]) was 1.70 ng/mL. The “Factor VII” value (chronic mild stress rats; [2]) was 0.30 ng/mL, the “GCP-2 (Granulocyte Chemotactic Protein-2)” value (chronic mild stress rats; [2]) was 0.29 ng/mL and the GST-Mu (chronic mild stress rats; [2]) was 1190.00 ng/mL. The “Growth Hormone” value (chronic mild stress rats; [2]) was 3.10 ng/mL, the “IL-1beta (Interleukin-1beta)” value (chronic mild stress rats; [2]) was 0.56 ng/mL and the “IL-2 (Interleukin-2)” value (chronic mild stress rats; [2]) was 22.00 pg/mL. The “IL-5 (Interleukin-5)” value (chronic mild stress rats; [2]) was 0.24 ng/mL, the “IL-7 (Interleukin-7)” value (chronic mild stress rats; [2]) was 0.06 ng/mL and the “IL-10 (Interleukin-10)” value (chronic mild stress rats; [2]) was 362.00 pg/mL. For the same compound, the “IL-18 (Interleukin-18)” value (chronic mild stress rats; [2]) was 0.43 ng/mL, the “IP-10 (Inducible Protein-10)” value (chronic mild stress rats; [2]) was 41.00 pg/mL and the “IgA (Immunoglobulin A)” value (chronic mild stress rats; [2]) was 4.30 µg/mL. For the same compound, the Insulin (chronic mild stress rats; [2]) was 14.50 ulU/mL, the “LIF (Leukemia Inhibitory Factor)” value (chronic mild stress rats; [2]) was 67.00 pg/mL and the Leptin (chronic mild stress rats; [2]) was 1.35 ng/mL. The Lymphotactin (chronic mild stress rats; [2]) was 63.00 pg/mL, the “M-CSF” value (chronic mild stress rats; [2]) was 1400.00 ng/mL and the “MCP-1 (Monocyte Chemoattractant Protein-1)” value (chronic mild stress rats; [2]) was 1020.00 pg/mL. The “MCP-3 (Monocyte Chemoattractant Protein-3)” value (chronic mild stress rats; [2]) was 659.00 pg/mL, the “MCP-5 (Monocyte Chemoattractant Protein-5)” value (chronic mild stress rats; [2]) was 0.72 pg/mL and the “MDC (Macrophage-Derived Chemokine)” value (chronic mild stress rats; [2]) was 0.12 pg/mL. The “MIP-1alpha” value (chronic mild stress rats; [2]) was 127.00 ng/mL, the “MIP-1beta (Macrophage Inflammatory Protein-1beta)” value (chronic mild stress rats; [2]) was 0.01 pg/mL and the “MIP-1gamma” value (chronic mild stress rats; [2]) was 19.00 ng/mL. The “MIP-2 (Macrophage Inflammatory Protein-2)” value (chronic mild stress rats; [2]) was 0.22 pg/mL, the “MIP-3beta (Macrophage Inflammatory Protein-3beta)” value (chronic mild stress rats; [2]) was 29.70 ng/mL and the “MPO (Myeloperoxidase)” value (chronic mild stress rats; [2]) was 533.00 ng/mL. The Myoglobin (chronic mild stress rats; [2]) was 520.00 ng/mL, the “NGAL (Lipocalin-2)” value (chronic mild stress rats; [2]) was 0.15 ng/mL and the “OSM (Oncostatin M)” value (chronic mild stress rats; [2]) was 19.10 ng/mL. The Osteopontin (chronic mild stress rats; [2]) was 255.00 ng/mL, the “RANTES (Regulation Upon Activation, Normal T-Cell Expressed and Secreted)” value (chronic mild stress rats; [2]) was 10.60 pg/mL and the “SAP (Serum Amyloid P)” value (chronic mild stress rats; [2]) was 403.00 µg/mL. The “SCF (Stem Cell Factor)” value (chronic mild stress rats; [2]) was 11.30 pg/mL, the “SGOT” value (chronic mild stress rats; [2]) was 8.53 µg/mL and the “TIMP-1 (Tissue Inhibitor of Metalloproteinase Type-1)” value (chronic mild stress rats; [2]) was 0.24 ng/mL. For the same compound, the “TNF-alpha (Tumor Necrosis Factor-alpha)” value (chronic mild stress rats; [2]) was 4.45 ng/mL, the “TPO (Thrombopoietin)” value (chronic mild stress rats; [2]) was 119.00 ng/mL and the “Tissue Factor” value (chronic mild stress rats; [2]) was 0.06 ng/mL. For the same compound, the “VCAM-1 (Vascular Cell Adhesion Molecule-1)” value (chronic mild stress rats; [2]) was 353.00 ng/mL, the “VEGF” value (chronic mild stress rats; [2]) was 78.00 pg/mL and the “reversal of stress-induced alterations in serum markers” value (chronic mild stress rats; listed as gaboxadol) was “significantly reversed the stress-induced alterations in serum markers; also recorded: dose dependently is able to reverse or partially reverse changes”.
